# Measurements taken from patent US8557308B2, “Andrographis paniculata extract” (Nutrition Science Partners Limited, priority 2007, dated 2013).
# Test system: mildly to moderately active ulcerative colitis
# Assay: Randomized, double-dummy, active controlled 8-week clinical trial in ulcerative colitis
# Assay type: in vivo, human
# Conditions: week 8
# Protocol: 120 patients with colonoscopy-confirmed mildly to moderately active ulcerative colitis were assigned to two groups (60 patients/group). […] All other medications were excluded. The therapeutic effects were assessed biweekly using a scale similar to the partial Mayo Scoring System, and the clinical symptom score reduction (≧50% reduction in symptoms) was calculated. Scores were then retrospectively calculated using the standard partial Mayo scores (PMS), clinical response (improvement ≧2 points or final score of 0) and remission (≦1 PMS score at week 8). Colonoscopies at the beginning and at the end of treatment were rated with a modified Baron score, and biopsies taken during colonoscopy were graded histologically with a scale of 0-3.
structure (smiles),measurement,setting,value
"Nc1ccc(O)c(C(=O)O)c1 [Etiasa, 5-amino-2-hydroxybenzoic acid]",patients with Baron scores reduced by at least two grades,colonoscopy,42%
same,clinical response rate (partial Mayo score improvement ≧2 points or final score of 0),,58%
